From patent US20240383904A1, “HETEROCYCLIC COMPOUNDS” (Hoffmann-La Roche Inc., priority 2021, published 2024)

Biological target: T1, MAGL (Homo sapiens, UniProt Q99685)
T1 sequence (Q99685 1-303): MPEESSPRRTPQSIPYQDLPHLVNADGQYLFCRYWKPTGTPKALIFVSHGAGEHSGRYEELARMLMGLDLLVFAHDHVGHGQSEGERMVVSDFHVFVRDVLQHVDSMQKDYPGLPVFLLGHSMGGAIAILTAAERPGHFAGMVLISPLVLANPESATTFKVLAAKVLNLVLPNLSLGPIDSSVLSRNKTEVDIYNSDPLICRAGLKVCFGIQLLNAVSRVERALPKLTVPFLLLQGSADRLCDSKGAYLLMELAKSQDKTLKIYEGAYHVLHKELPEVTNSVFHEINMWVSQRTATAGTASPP
Test: 2-AG assay: MAGL inhibitory activity by hydrolysis of 2-arachidonoylglycerol to arachidonic acid, followed by mass spectrometry
Type: biochemical
Conditions: 15 min preincubation, 30 min reaction at RT, 8 μM 2-arachidonoylglycerol

Row | SMILES | IC50 [nM]
1 | O=C1CCC2(CN(C(=O)N3CC4(CCC(NS(=O)(=O)c5cccc(OC(F)(F)F)c5)CC4)C3)C2)N1 [Example 116, N-[2-(6-keto-2,5-diazaspiro[3.4]octane-2-carbonyl)-2-azaspiro[3.5]nonan-7-yl]-3-(trifluoromethoxy)benzene-sulfonamide] | 1.73
2 | O=C1CCC2(CN(C(=O)N3CC4(CCC(Cc5ccc(OC(F)F)nc5)CC4)C3)C2)N1 [Example 121, 2-[7-[[6-(difluoromethoxy)-3-pyridyl]methyl]-2-azaspiro[3.5]nonane-2-carbonyl]-2,5-diazaspiro[3.4]octan-6-one] | 4.19
3 | CS(=O)(=O)c1ccc(Cl)cc1OC1CCC2(CC1)CN(C(=O)N1CC3(COC(=O)N3)C1)C2 [Example 122, 2-[7-(5-chloro-2-mesyl-phenoxy)-2-azaspiro[3.5]nonane-2-carobnyl]-7-oxa-2,5-diazaspiro[3.4]octan-6-one] | 4.33
4 | CS(=O)(=O)c1ccc(C2CC3(C2)CN(C(=O)N2CC4(COC(=O)N4)C2)C3)cc1 [Example 124, 2-[6-(4-mesylphenyl)-2-azaspiro[3.3]heptane-2-carbonyl]-7-oxa-2,5-diazaspiro[3.4]octan-6-one] | 4.54
5 | O=C1CCC2(CN(C(=O)N3CC4(CCC(Cc5ncc(F)cc5F)CC4)C3)C2)N1 [Example 125, 2-[7-[(3,5-difluoro-2-pyridyl)methyl]-2-azaspiro[3.5]nonane-2-carbonyl]-2,5-diazaspiro[3.4]octan-6-one] | 5.81
6 | O=C1NC2(CO1)CN(C(=O)N1CC3(CC(c4cncc(F)c4)C3)C1)C2 [Example 126, 2-[6-(5-fluoro-3-pyridyl)-2-azaspiro[3.3]heptane-2-carbonyl]-7-oxa-2,5-diazaspiro[3.4]octan-6-one] | 21.3
7 | O=C1NCC2(CN(C(=O)N3CC4(CCC(OCC5(C(F)(F)F)CC5)CC4)C3)C2)N1 [Example 127, 2-[7-[[1-(trifluoromethyl)cyclopro-pyl]methoxy]-2-azaspiro[3.5]nonane-2-carbonyl]-2,5,7-triazaspiro[3.4]octan-6-one] | 30.8
8 | O=C1NCC2(CN(C(=O)N3CC4(CCC(Cc5ccc(OC(F)F)nc5)CC4)C3)C2)N1 [Example 128, 2-[7-[[6-(difluoromethoxy)-3-pyridyl]methyl]-2-azaspiro[3.5]nonane-2-carbonyl]-2,5,7-triazaspiro[3.4]octan-6-one] | 51.9
9 | O=C1CCC2(CN(C(=O)N3CC4(CCC(Nc5cnc(C(F)(F)F)cn5)CC4)C3)C2)N1 [Example 129, 2-[7-[[5-(trifluoromethyl)pyrazin-2-yl]amino]-2-azaspiro[3.5]nonane-2-carbonyl]-2,5-diazaspiro[3.4]octan-6-one] | 66.7
10 | O=C1COCC2(CN(C(=O)N3CC4(CCN(Cc5cccc(S(=O)(=O)C(F)(F)F)c5)CC4)C3)C2)N1 [Example 134, 2-[7-(3-triflylbenzyl)-2,7-diazaspiro[3.5]nonane-2-carbonyl]-8-oxa-2,5-diazaspiro[3.5]nonan-6-one] | 19.1
11 | O=C1NC2(CO1)CN(C(=O)N1CC3(CCN(Cc4ccc(C(F)(F)F)cc4F)CC3)C1)C2 [Example 135] | 1.01
12 | O=C1COCC2(CN(C(=O)N3CC4(CC(Cc5ccc(F)cc5F)C4)C3)C2)N1 [Example 137, 2-[6-(2,4-difluorobenzyl)-2-azaspiro[3.3]heptane-2-carbonyl]-8-oxa-2,5-diazaspiro[3.5]nonan-6-one] | 0.97
13 | O=C1NC2(CO1)CN(C(=O)N1CC3(CCN(Cc4cccc(S(=O)(=O)C(F)(F)F)c4)CC3)C1)C2 [Example 139, 2-[7-(3-triflylbenzyl)-2,7-diazaspiro[3.5]nonane-2-carbonyl]-7-oxa-2,5-diazaspiro[3.4]octan-6-one] | 0.76
14 | O=C1COCC2(CN(C(=O)N3CC4(CCN(S(=O)(=O)c5ccc(C(F)(F)F)cc5F)CC4)C3)C2)N1 [Example 141, 2-[7-[2-fluoro-4-(trifluoromethyl)phenyl]sulfonyl-2,7-diazaspiro[3.5]nonane-2-carbonyl]-8-oxa-2,5-diazaspiro[3.5]nonan-6-one] | 217
15 | O=C1COCC2(CN(C(=O)N3CC4(CC(Cc5ccc(C(F)(F)F)cc5F)C4)C3)C2)N1 [Example 145] | 0.06

More lines, in order of falling IC50, values ahead:

Row | IC50 [nM] | SMILES
16 | 2120 | O=C1NC2(CCO1)CN(C(=O)N1CC3(CCN(S(=O)(=O)c4ccc(C(F)(F)F)cc4F)CC3)C1)C2 [Example 144, 2-[7-[2-fluoro-4-(trifluoromethyl)phenyl]sulfonyl-2,7-diazaspiro[3.5]nonane-2-carbonyl]-7-oxa-2,5-diazaspiro[3.5]nonan-6-one]
17 | 209 | O=C1CCC2(CN(C(=O)N3CC4(CC(n5cnc(C6CC6)n5)C4)C3)C2)N1 [Example 131, 2-[6-(3-cyclopropyl-1,2,4-triazol-1-yl)-2-azaspiro[3.3]heptane-2-carbonyl]-2,5-diazaspiro[3.4]octan-6-one]
18 | 186 | O=C1NC2(CCO1)CN(C(=O)N1CC3(CCC(OCC4(C(F)(F)F)CC4)CC3)C1)C2 [Example 130, 2-[7-[[1-(trifluoromethyl)cyclopro-pyl]methoxy]-2-azaspiro[3.5]nonane-2-carbonyl]-7-oxa-2,5-diazaspiro[3.5]nonan-6-one]
19 | 123 | O=C1CCC2(CN(C(=O)N3CC4(CCN(Cc5ccc(C(F)(F)F)nc5)CC4)C3)C2)N1 [Example 148, 2-[7-[[6-(trifluoromethyl)-3-pyridyl]methyl]-2,7-diazaspiro[3.5]nonane-2-carbonyl]-2,5-diazaspiro[3.4]octan-6-one]
20 | 78.9 | O=C1COCC2(CN(C(=O)N3CC4(CC(OCC5(C(F)(F)F)CC5)C4)C3)C2)N1 [Example 140, 2-[6-[[1-(trifluoromethyl)cyclopro-pyl]methoxy]-2-azaspiro[3.3]heptane-2-carbonyl]-8-oxa-2,5-diazaspiro[3.5]nonan-6-one]
21 | 51 | O=C1COCC2(CN(C(=O)N3CC4(CC(Cc5cnc(C(F)(F)F)cn5)C4)C3)C2)N1 [Example 138, 2-[6-[[5-(trifluoromethyl)pyrazin-2-yl]methyl]-2-azaspiro[3.3]heptane-2-carbonyl]-8-oxa-2,5-diazaspiro[3.5]nonan-6-one]
22 | 23.2 | CS(=O)(=O)c1cc(F)ccc1CC1CC2(C1)CN(C(=O)N1CC3(COCC(=O)N3)C1)C2 [Example 147, 2-[6-(4-fluoro-2-mesyl-benzyl)-2-azaspiro[3.3]heptane-2-carbonyl]-8-oxa-2,5-diazaspiro[3.5]nonan-6-one]
23 | 13.1 | O=C1COCC2(CN(C(=O)N3CC4(CCC(Cc5ccc(OC(F)F)nc5)CC4)C3)C2)N1 [Example 133, 2-[7-[[6-(difluoromethoxy)-3-pyridyl]methyl]-2-azaspiro[3.5]nonane-2-carbonyl]-8-oxa-2,5-diazaspiro[3.5]nonan-6-one]
24 | 10.9 | O=C1CCC2(CN(C(=O)N3CC4(CCN(Cc5ccc(C(F)(F)F)cn5)CC4)C3)C2)N1 [Example 146, 2-[7-[[5-(trifluoromethyl)-2-pyridyl]methyl]-2,7-diazaspiro[3.5]nonane-2-carbonyl]-2,5-diazaspiro[3.4]octan-6-one]
25 | 4.66 | O=C1CCC2(CN(C(=O)N3CC4(CCN(Cc5cccc(S(=O)(=O)C(F)(F)F)c5)CC4)C3)C2)N1 [Example 136, 2-[7-(3-triflylbenzyl)-2,7-diazaspiro[3.5]nonane-2-carbonyl]-2,5-diazaspiro[3.4]octan-6-one]
26 | 4.43 | O=C1NC2(CO1)CN(C(=O)N1CC3(CCC(Oc4ncc(C(F)(F)F)cn4)CC3)C1)C2 [Example 123, 2-[7-[5-(trifluoromethyl)pyrimi-din-2-yl]oxy-2-azaspiro[3.5]nonane-2-carbonyl]-7-oxa-2,5-diazaspiro[3.4]octan-6-one]
27 | 2.95 | O=C1CCC2(CN(C(=O)N3CC4(CCC(Cc5ccc(Cl)cn5)CC4)C3)C2)N1 [Example 120, 2-[7-[(5-chloro-2-pyridyl)methyl]-2-azaspiro[3.5]nonane-2-carbonyl]-2,5-diazaspiro[3.4]octan-6-one]
28 | 2.93 | O=C1NC2(CO1)CN(C(=O)N1CC3(CC(NCC4(C(F)(F)F)CC4)C3)C1)C2 [Example 119, 2-[6-[[1-(trifluoromethyl)cyclopro-pyl]methylamino]-2-azaspiro[3.3]heptane-2-carbonyl]-7-oxa-2,5-diazaspiro[3.4]octan-6-one]
29 | 2.49 | CS(=O)(=O)c1ccc(O[C@H]2CCC3(C2)CN(C(=O)N2CC4(COC(=O)N4)C2)C3)cc1C(F)(F)F [Example 118, 2-[(6S)-6-[4-mesy1-3-(trifluoromethyl)phenoxy]-2-azaspiro[3.4]octane-2-carbonyl]-7-oxa-2,5-diazaspiro[3.4]octan-6-one]
30 | 1.96 | CS(=O)(=O)c1cc(C(F)(F)F)ccc1C1CC2(C1)CN(C(=O)N1CC3(COC(=O)N3)C1)C2 [Example 117]
31 | 1.02 | O=C1NC2(CO1)CN(C(=O)N1CC3(CC(c4ccc(F)cc4)C3)C1)C2 [Example 115, 2-[6-(4-fluorophenyl)-2-azaspiro[3.3]heptane-2-carbonyl]-7-oxa-2,5-diazaspiro[3.4]octan-6-one]
32 | 0.79 | O=C1CCC2(CN(C(=O)N3CC4(CCN(Cc5ccc(C(F)(F)F)cc5F)CC4)C3)C2)N1 [Example 132]
33 | 0.63 | O=C1NC2(CO1)CN(C(=O)N1CC3(CCC(NS(=O)(=O)c4cccc(OC(F)(F)F)c4)CC3)C1)C2 [Example 114, N-[2-(6-keto-7-oxa-2,5-diazaspiro[3.4]octane-2-carbonyl)-2-azaspiro[3.5]nonan-7-yl]-3-(trifluoromethoxy)benzene-sulfonamide]
34 | 0.45 | O=C1COCC2(CN(C(=O)N3CC4(CC(Cc5cc(F)cc(C(F)(F)F)c5)C4)C3)C2)N1 [Example 142]
35 | 0.07 | O=C1COCC2(CN(C(=O)N3CC4(CC(Cc5ccc(F)cc5C(F)(F)F)C4)C3)C2)N1 [Example 143]
